In patent publication US9326506B2, “Preparation method, agricultural composition and applications of natural brassinolide analogs” (CHENGDU NEWSUN CROPSCIENCE CO., LTD, priority 2012, dated 2016):

System: rice
Assay: Low temperature assay on rice seedlings
Format: in vivo
Method: According to a low temperature assay, we measured parameters including plant height, number of leaf, area of leaf, number of tiller, weight of root at low temperature to completely determine effects of the natural brassinolide analogues on the resistance to low temperature of a plant.
The natural brassinolide analogues, BR1, BR2, BR3, BR4, BR5 and BR6, used herein, were those prepared by the method of Example 1. Respectively the analogues were dissolved into 95% (V/V) ethanol solution, and then diluted with pure water to 1 mg/L, 0.1 mg/L, 0.01 mg/L, 0.001 mg/L and 0.0001 mg/L. In addition, pure water was used as a control.
After rice seeds were disinfected by using 5% sodium hypochlorite solution treatment, they were rinsed with distilled water until their pH>7, placed into a petri dish in a dark incubator, and cultured by using water at 30° C.±2° C. for 9 days. Then respectively the nine-day-old etiolated seedlings of rice were immersed in the above solutions containing different concentrations of the natural brassinolide analogues or pure water, and cultured at the temperature of 1° C., 2° C., 3° C., 4° C. and 5° C. for 24 hr. The parameters including plant height, area of leaf and weight of root after 3, 6, 9 and 12 days and number of leaf and number of tiller after 12 days were measured.

CC(C)[C@H](C)[C@@H](O)[C@H](O)[C@@H](C)[C@H]1CCC2C3CC(=O)C4C[C@H](O)CC[C@]4(C)C3CC[C@@]21C (stereo partly shown) [BR4]
11.7 cm^2: Area of leaf (0.0001 mg/l, 2 °C, 6 days)
6.8 cm: Height (0.0001 mg/l, 1 °C, 3 days) | Height (0.0001 mg/l, 2 °C, 3 days)
12.4 cm^2: Area of leaf (0.01 mg/l, 1 °C, 9 days)
13.6 cm^2: Area of leaf (0.001 mg/l, 1 °C, 12 days) | Area of leaf (0.01 mg/l, 1 °C, 12 days)
6.9 cm: Height (0.0001 mg/l, 1 °C, 6 days) | Height (0.0001 mg/l, 3 °C, 3 days) | Height (0.0001 mg/l, 4 °C, 3 days) | Height (0.001 mg/l, 1 °C, 3 days) | Height (0.001 mg/l, 2 °C, 3 days)
9.2 cm^2: Area of leaf (0.01 mg/l, 1 °C, 3 days)
11.8 cm^2: Area of leaf (0.0001 mg/l, 3 °C, 6 days)
16 cm^2: Area of leaf (0.001 mg/l, 5 °C, 12 days)
10 cm^2: Area of leaf (0.0001 mg/l, 2 °C, 3 days) | Area of leaf (0.0001 mg/l, 3 °C, 3 days) | Area of leaf (0.0001 mg/l, 4 °C, 3 days) | Area of leaf (0.001 mg/l, 1 °C, 3 days) | Area of leaf (0.001 mg/l, 3 °C, 3 days) | Area of leaf (0.001 mg/l, 4 °C, 3 days) | Area of leaf (0.01 mg/l, 2 °C, 3 days)
11.5 cm^2: Area of leaf (0.0001 mg/l, 4 °C, 6 days)
7.1 cm: Height (0.0001 mg/l, 2 °C, 9 days) | Height (0.0001 mg/l, 3 °C, 6 days) | Height (0.0001 mg/l, 4 °C, 6 days) | Height (0.001 mg/l, 1 °C, 9 days) | Height (0.001 mg/l, 2 °C, 9 days) | Height (0.001 mg/l, 4 °C, 3 days) | Height (0.01 mg/l, 1 °C, 6 days)
13 cm^2: Area of leaf (0.0001 mg/l, 1 °C, 12 days) | Area of leaf (0.0001 mg/l, 2 °C, 12 days) | Area of leaf (0.0001 mg/l, 3 °C, 12 days) | Area of leaf (0.0001 mg/l, 4 °C, 9 days) | Area of leaf (0.0001 mg/l, 5 °C, 9 days) | Area of leaf (0.001 mg/l, 3 °C, 12 days) | Area of leaf (0.001 mg/l, 4 °C, 9 days)
12.2 cm^2: Area of leaf (0.0001 mg/l, 1 °C, 9 days) | Area of leaf (0.001 mg/l, 3 °C, 9 days)
12.6 cm^2: Area of leaf (0.001 mg/l, 1 °C, 9 days)
3.5 g: Weight of root (0.0001 mg/l, 1 °C, 12 days)
12.1 cm^2: Area of leaf (0.0001 mg/l, 3 °C, 9 days) | Area of leaf (0.01 mg/l, 3 °C, 9 days)
2: Number of tiller (0.0001 mg/l, 3 °C, 12 days) | Number of tiller (0.0001 mg/l, 4 °C, 12 days) | Number of tiller (0.0001 mg/l, 5 °C, 12 days) | Number of tiller (0.001 mg/l, 3 °C, 12 days) | Number of tiller (0.001 mg/l, 4 °C, 12 days)
2.6 g: Weight of root (0.0001 mg/l, 3 °C, 6 days) | Weight of root (0.0001 mg/l, 4 °C, 6 days) | Weight of root (0.001 mg/l, 3 °C, 6 days) | Weight of root (0.001 mg/l, 4 °C, 6 days) | Weight of root (0.01 mg/l, 3 °C, 6 days)
11.6 cm^2: Area of leaf (0.001 mg/l, 2 °C, 6 days) | Area of leaf (0.01 mg/l, 1 °C, 6 days)
3.9 g: Weight of root (0.001 mg/l, 2 °C, 12 days) | Weight of root (0.01 mg/l, 1 °C, 12 days)
13.4 cm^2: Area of leaf (0.0001 mg/l, 4 °C, 12 days) | Area of leaf (0.0001 mg/l, 5 °C, 12 days) | Area of leaf (0.01 mg/l, 2 °C, 12 days)
2.8 g: Weight of root (0.0001 mg/l, 1 °C, 3 days) | Weight of root (0.0001 mg/l, 2 °C, 3 days) | Weight of root (0.001 mg/l, 1 °C, 3 days) | Weight of root (0.001 mg/l, 2 °C, 3 days) | Weight of root (0.001 mg/l, 5 °C, 3 days) | Weight of root (0.01 mg/l, 1 °C, 3 days) | Weight of root (0.01 mg/l, 2 °C, 3 days)
2.9 g: Weight of root (0.0001 mg/l, 3 °C, 9 days) | Weight of root (0.0001 mg/l, 3 °C, 12 days) | Weight of root (0.0001 mg/l, 4 °C, 9 days) | Weight of root (0.0001 mg/l, 4 °C, 12 days) | Weight of root (0.0001 mg/l, 5 °C, 9 days) | Weight of root (0.0001 mg/l, 5 °C, 12 days) | Weight of root (0.001 mg/l, 3 °C, 9 days) | Weight of root (0.001 mg/l, 3 °C, 12 days) | Weight of root (0.001 mg/l, 4 °C, 9 days) | Weight of root (0.001 mg/l, 4 °C, 12 days) | Weight of root (0.001 mg/l, 5 °C, 6 days)
13.1 cm^2: Area of leaf (0.001 mg/l, 2 °C, 12 days) | Area of leaf (0.001 mg/l, 4 °C, 12 days)
11.3 cm^2: Area of leaf (0.001 mg/l, 1 °C, 6 days)
12.5 cm^2: Area of leaf (0.01 mg/l, 2 °C, 9 days)
12 cm^2: Area of leaf (0.0001 mg/l, 2 °C, 9 days) | Area of leaf (0.0001 mg/l, 5 °C, 6 days) | Area of leaf (0.001 mg/l, 2 °C, 9 days) | Area of leaf (0.001 mg/l, 3 °C, 6 days) | Area of leaf (0.001 mg/l, 4 °C, 6 days) | Area of leaf (0.01 mg/l, 3 °C, 6 days)
7.5 cm: Height (0.0001 mg/l, 4 °C, 9 days) | Height (0.0001 mg/l, 4 °C, 12 days) | Height (0.0001 mg/l, 5 °C, 9 days) | Height (0.001 mg/l, 3 °C, 12 days) | Height (0.001 mg/l, 4 °C, 12 days) | Height (0.01 mg/l, 1 °C, 12 days) | Height (0.01 mg/l, 2 °C, 12 days)
3.1 g: Weight of root (0.0001 mg/l, 1 °C, 9 days) | Weight of root (0.001 mg/l, 1 °C, 6 days) | Weight of root (0.01 mg/l, 1 °C, 9 days)
7.3 cm: Height (0.0001 mg/l, 5 °C, 6 days) | Height (0.001 mg/l, 2 °C, 12 days) | Height (0.001 mg/l, 4 °C, 6 days) | Height (0.01 mg/l, 3 °C, 6 days)
7.4 cm: Height (0.0001 mg/l, 3 °C, 9 days) | Height (0.0001 mg/l, 3 °C, 12 days) | Height (0.001 mg/l, 1 °C, 12 days) | Height (0.001 mg/l, 3 °C, 9 days) | Height (0.001 mg/l, 4 °C, 9 days) | Height (0.001 mg/l, 5 °C, 6 days) | Height (0.001 mg/l, 5 °C, 9 days) | Height (0.01 mg/l, 1 °C, 9 days) | Height (0.01 mg/l, 2 °C, 9 days)
15.4 cm^2: Area of leaf (0.001 mg/l, 5 °C, 9 days)
7.2 cm: Height (0.0001 mg/l, 1 °C, 12 days) | Height (0.0001 mg/l, 2 °C, 12 days) | Height (0.001 mg/l, 3 °C, 6 days) | Height (0.001 mg/l, 5 °C, 3 days) | Height (0.01 mg/l, 2 °C, 6 days)
7.0 cm: Height (0.0001 mg/l, 5 °C, 3 days)
9.8 cm^2: Area of leaf (0.0001 mg/l, 1 °C, 3 days) | Area of leaf (0.001 mg/l, 2 °C, 3 days)
11 cm^2: Area of leaf (0.0001 mg/l, 1 °C, 6 days) | Area of leaf (0.01 mg/l, 2 °C, 6 days)
10.2 cm^2: Area of leaf (0.0001 mg/l, 5 °C, 3 days) | Area of leaf (0.001 mg/l, 5 °C, 3 days) | Area of leaf (0.01 mg/l, 3 °C, 3 days)
2.5 g: Weight of root (0.0001 mg/l, 3 °C, 3 days) | Weight of root (0.0001 mg/l, 4 °C, 3 days) | Weight of root (0.0001 mg/l, 5 °C, 3 days) | Weight of root (0.0001 mg/l, 5 °C, 6 days) | Weight of root (0.001 mg/l, 3 °C, 3 days) | Weight of root (0.001 mg/l, 4 °C, 3 days) | Weight of root (0.01 mg/l, 3 °C, 3 days)
7 cm: Height (0.0001 mg/l, 1 °C, 9 days) | Height (0.0001 mg/l, 2 °C, 6 days) | Height (0.001 mg/l, 1 °C, 6 days) | Height (0.001 mg/l, 2 °C, 6 days) | Height (0.001 mg/l, 3 °C, 3 days) | Height (0.01 mg/l, 2 °C, 3 days) | Height (0.01 mg/l, 3 °C, 3 days)
7.9 cm: Height (0.001 mg/l, 5 °C, 12 days)
3 g: Weight of root (0.0001 mg/l, 1 °C, 6 days) | Weight of root (0.001 mg/l, 2 °C, 9 days) | Weight of root (0.01 mg/l, 2 °C, 6 days) | Weight of root (0.01 mg/l, 2 °C, 9 days)
3.0 g: Weight of root (0.0001 mg/l, 2 °C, 6 days) | Weight of root (0.001 mg/l, 2 °C, 6 days) | Weight of root (0.001 mg/l, 5 °C, 9 days) | Weight of root (0.01 mg/l, 1 °C, 6 days)
7.6 cm: Height (0.0001 mg/l, 5 °C, 12 days)
3: Number of leaf (0.0001 mg/l, 1 °C, 12 days) | Number of tiller (0.0001 mg/l, 1 °C, 12 days) | Number of leaf (0.0001 mg/l, 2 °C, 12 days) | Number of tiller (0.0001 mg/l, 2 °C, 12 days) | Number of leaf (0.0001 mg/l, 3 °C, 12 days) | Number of leaf (0.0001 mg/l, 4 °C, 12 days) | Number of leaf (0.0001 mg/l, 5 °C, 12 days) | Number of leaf (0.001 mg/l, 1 °C, 12 days) | Number of tiller (0.001 mg/l, 1 °C, 12 days) | Number of leaf (0.001 mg/l, 2 °C, 12 days) | Number of tiller (0.001 mg/l, 2 °C, 12 days) | Number of leaf (0.001 mg/l, 3 °C, 12 days) | Number of leaf (0.001 mg/l, 4 °C, 12 days) | Number of leaf (0.001 mg/l, 5 °C, 12 days) | Number of tiller (0.001 mg/l, 5 °C, 12 days) | Number of leaf (0.01 mg/l, 1 °C, 12 days) | Number of tiller (0.01 mg/l, 1 °C, 12 days) | Number of leaf (0.01 mg/l, 2 °C, 12 days) | Number of tiller (0.01 mg/l, 2 °C, 12 days)
3.7 g: Weight of root (0.0001 mg/l, 2 °C, 12 days) | Weight of root (0.001 mg/l, 1 °C, 12 days) | Weight of root (0.001 mg/l, 5 °C, 12 days)
3.2 g: Weight of root (0.0001 mg/l, 2 °C, 9 days) | Weight of root (0.001 mg/l, 1 °C, 9 days) | Weight of root (0.01 mg/l, 2 °C, 12 days)
14 cm^2: Area of leaf (0.001 mg/l, 5 °C, 6 days)
6.7 cm: Height (0.01 mg/l, 1 °C, 3 days)
